Like-named read-outs stand apart in the source and are kept apart here.
Legend:
[1] = tested on: Bacillus atrophaeus ATCC 9372 spores; settings: 28% hydrogen peroxide, 65° C.
Source text: The mixture was then serially ten-fold diluted in saline and spread-plated on tryptic soy agar.

[2] = tested on: Bacillus atrophaeus ATCC 9372 spores; settings: conventional usage regime; cited from earlier work
[3] = tested on: Bacillus atrophaeus ATCC 9372 spores; experiment: Efficacy usage regimes of hydrogen peroxide and peracetic acid as compared to performic acid; assay type: cell-based; settings: performic acid regime per Table 3
Protocol: For example, temperatures greater than about 55° C. to 65° C. and exposure times greater than about fifteen seconds may be employed in conventional techniques.

For `OO` [Hydrogen Peroxide, hydrogen peroxide], which “contact time per one logarithm of spore inactivation” value [1] is on record?
Its value is “seven”.

What about the “Efficacy usage regime: Temperature” value [2] of the same compound?
Its value is 65 °C.

And the “Efficacy usage regime: Time” value [2]?
Its value is 15 to 30 s.

What does the source list for `CC(=O)OO` [Peracetic Acid, peracetic acid]?
Efficacy usage regime: Temperature [2]: 55 °C; Efficacy usage regime: Time [2]: 15 s

Which results are given for performic acid?
Efficacy usage regime: Temperature [3]: Room Temperature; Efficacy usage regime: Time [3]: 5 s

Source: patent publication US9814796B2, “Methods for sterilization and/or disinfection” (P[…] OF NEVADA, LLC, priority 2015, dated 2017)
